# ChEMBL document CHEMBL4312010, “Synthesis and antibacterial evaluation of novel oxazolidinone derivatives containing a piperidinyl moiety” (Bioorg Med Chem Lett, 2019)
# How the values were obtained:
# [1] = tested on: Staphylococcus aureus; test: Antibacterial activity agianst Staphylococcus aureus ATCC 29213; assay type: functional
# [2] = tested on: Staphylococcus aureus; test: Antibacterial activity agianst methicillin-sensitive Staphylococcus aureus; assay type: functional
# [3] = tested on: Enterococcus faecium; test: Antibacterial activity agianst vancomycin-resistant Enterococcus faecium; assay type: functional
# [4] = tested on: Staphylococcus aureus; test: Antibacterial activity agianst methicillin-resistant Staphylococcus aureus; assay type: functional
# [5] = tested on: Enterococcus faecalis; test: Antibacterial activity agianst linezolid-resistant Enterococcus faecalis; assay type: functional
# [6] = tested on: Enterococcus faecalis; test: Antibacterial activity agianst linezolid-resistant Enterococcus faecalis clinical isolates; assay type: functional
# [7] = tested on: Enterococcus faecium; test: Antibacterial activity agianst vancomycin-resistant Enterococcus faecium clinical isolates; assay type: functional
# [8] = tested on: HepG2; test: Cytotoxicity against human HepG2 cells assessed as reduction in cell viability; assay type: cell-based
# [9] = tested on: Staphylococcus aureus; test: Antibacterial activity agianst methicillin-sensitive Staphylococcus aureus clinical isolates; assay type: functional
# [10] = molecular target: T1, MAO-A (amine oxidase [flavin-containing] A) (Homo sapiens, UniProt P21397); test: Inhibition of human MAO-A at 30 uM relative to control
# T1 sequence (P21397 whole entry): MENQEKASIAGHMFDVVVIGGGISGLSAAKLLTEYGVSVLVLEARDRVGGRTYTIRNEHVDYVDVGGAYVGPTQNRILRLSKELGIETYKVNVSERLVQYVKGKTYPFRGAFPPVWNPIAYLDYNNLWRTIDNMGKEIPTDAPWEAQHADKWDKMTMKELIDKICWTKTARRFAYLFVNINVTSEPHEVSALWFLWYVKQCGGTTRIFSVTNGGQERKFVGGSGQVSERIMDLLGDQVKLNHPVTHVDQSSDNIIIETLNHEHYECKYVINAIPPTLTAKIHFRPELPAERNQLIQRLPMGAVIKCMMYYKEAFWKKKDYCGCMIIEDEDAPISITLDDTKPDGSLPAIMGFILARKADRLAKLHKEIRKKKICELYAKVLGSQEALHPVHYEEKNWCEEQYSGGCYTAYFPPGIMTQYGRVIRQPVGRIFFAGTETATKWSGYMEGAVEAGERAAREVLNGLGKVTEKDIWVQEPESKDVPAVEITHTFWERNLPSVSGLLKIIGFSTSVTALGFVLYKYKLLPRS
# [11] = tested on: Enterococcus faecalis; test: Potency index, ratio of linezolid MIC to compound MIC for antibacterial activity against linezolid-resistant Enterococcus faecalis clinical isolates; assay type: functional
# [12] = Intrinsic clearance in human liver microsomes; assay type: ADME, Microsome; conditions: read-out: CLH
# [13] = Metabolic stability in human liver microsomes assessed as parent compound remaining after 45 mins in presence of NADPH relative to control; assay type: ADME, Microsome; conditions: read-out: Stability
# [14] = tested on: Enterococcus faecalis; test: Potency index, ratio of linezolid MIC to compound MIC for antibacterial activity against linezolid-resistant Enterococcus faecalis; assay type: functional
# [15] = Half life in human liver microsomes; assay type: ADME, Microsome
# [16] = tested on: Staphylococcus aureus; test: Antibacterial activity agianst methicillin-resistant Staphylococcus aureus clinical isolates; assay type: functional
Structure (SMILES),MIC [1],MIC [2],MIC [3],MIC [4],MIC [5],MIC [6],MIC [7],IC50 [8],MIC [9],inhibition at 30 µM [10],Ratio [11],CLint scaled [12],remaining at 0.75 h [13],Ratio [14],half-life [15],MIC [16]
CC(=O)NC[C@H]1CN(c2ccc(N3CCN(Cc4ccc([N+](=O)[O-])o4)CC3)c(F)c2)C(=O)O1 [RANBEZOLID],0.5 µg/mL,0.5 µg/mL,0.5 µg/mL,0.5 µg/mL,0.5 µg/mL,–,–,–,–,–,–,–,–,–,–,–
CC(=O)NC[C@H]1CN(c2ccc(N3CCC(Nc4cccc(OC(F)(F)F)c4)CC3)c(F)c2)C(=O)O1,2 µg/mL,2 µg/mL,2 µg/mL,2 µg/mL,2 µg/mL,–,–,–,–,–,–,–,–,–,–,–
CC(=O)NC[C@H]1CN(c2ccc(N3CCC(NCc4ccccc4)CC3)c(F)c2)C(=O)O1,2 µg/mL,1 µg/mL,2 µg/mL,1 µg/mL,2 µg/mL,–,–,–,–,–,–,–,–,–,–,–
CC(=O)NC[C@H]1CN(c2ccc(N3CCC(Nc4ccc(F)cc4)CC3)c(F)c2)C(=O)O1,1 µg/mL,1 µg/mL,1 µg/mL,0.5 µg/mL,1 µg/mL,–,–,–,–,–,–,–,–,–,–,–
CC(=O)NC[C@H]1CN(c2ccc(N3CCC(Nc4ccc(Cl)cc4)CC3)c(F)c2)C(=O)O1,2 µg/mL,2 µg/mL,2 µg/mL,2 µg/mL,2 µg/mL,–,–,–,–,–,–,–,–,–,–,–
CC(=O)NC[C@H]1CN(c2ccc(N3CCC(Nc4ccc(Br)cc4F)CC3)c(F)c2)C(=O)O1,2 µg/mL,2 µg/mL,2 µg/mL,2 µg/mL,1 µg/mL,–,–,–,–,–,–,–,–,–,–,–
CC(=O)NC[C@H]1CN(c2ccc(N3CCC(Nc4cccc(Br)c4)CC3)c(F)c2)C(=O)O1,2 µg/mL,2 µg/mL,2 µg/mL,2 µg/mL,2 µg/mL,–,–,–,–,–,–,–,–,–,–,–
CC(=O)NC[C@H]1CN(c2ccc(N3CCC(N(C)c4ccc(Br)cc4)CC3)c(F)c2)C(=O)O1,2 µg/mL,2 µg/mL,1 µg/mL,2 µg/mL,1 µg/mL,–,–,–,–,–,–,–,–,–,–,–
CC(=O)NC[C@H]1CN(c2ccc(N3CCC(Nc4ccc(Br)cc4)CC3)c(F)c2)C(=O)O1,1 µg/mL,1 µg/mL,0.25 µg/mL,0.5 µg/mL,0.25 µg/mL,0.0625 to 0.25 µg/mL,0.125 to 0.25 µg/mL,> 64 µM,0.5 to 1 µg/mL,70%,64,3.46 mL/min/kg,97%,64,8.37 h,–
CC(=O)NC[C@H]1CN(c2ccc(N3CCC(Nc4ccccc4Br)CC3)c(F)c2)C(=O)O1,2 µg/mL,2 µg/mL,2 µg/mL,2 µg/mL,2 µg/mL,–,–,–,–,–,–,–,–,–,–,–
CC(=O)NC[C@H]1CN(c2ccc(N3CCC(Nc4ccccc4OC(F)(F)F)CC3)c(F)c2)C(=O)O1,2 µg/mL,2 µg/mL,2 µg/mL,2 µg/mL,1 µg/mL,–,–,–,–,–,–,–,–,–,–,–
CC(=O)NC[C@H]1CN(c2ccc(N3CCC(Nc4ccc(C(C)C)cc4)CC3)c(F)c2)C(=O)O1,2 µg/mL,2 µg/mL,0.5 µg/mL,1 µg/mL,0.5 µg/mL,–,–,–,–,–,–,–,–,–,–,–
CC(=O)NC[C@H]1CN(c2ccc(N3CCOCC3)c(F)c2)C(=O)O1 [LINEZOLID],1 µg/mL,1 µg/mL,2 µg/mL,1 µg/mL,> 16 µg/mL,> 16 µg/mL,1 to 4 µg/mL,> 64 µM,1 to 2 µg/mL,75%,–,–,18%,–,–,1 to 4 µg/mL
CC(=O)NC[C@H]1CN(c2ccc(N3CCC(Nc4ccc(OC(F)(F)F)cc4)CC3)c(F)c2)C(=O)O1,1 µg/mL,1 µg/mL,0.5 µg/mL,1 µg/mL,0.5 µg/mL,–,–,–,–,–,–,–,–,–,–,–
CC(=O)NC[C@H]1CN(c2ccc(N3CCC(Nc4ccccc4)CC3)c(F)c2)C(=O)O1,1 µg/mL,1 µg/mL,1 µg/mL,1 µg/mL,0.5 µg/mL,0.125 to 0.25 µg/mL,0.25 to 0.5 µg/mL,–,0.5 to 1 µg/mL,85%,–,–,–,–,–,–
CC(=O)NC[C@H]1CN(c2ccc(N3CCN(/N=C/c4ccc([N+](=O)[O-])o4)CC3)c(F)c2)C(=O)O1,0.5 µg/mL,–,1 µg/mL,1 µg/mL,–,–,–,–,–,–,–,–,–,–,–,–
CC(=O)NC[C@H]1CN(c2ccc(N3CCC(NCc4ccc(F)cc4)CC3)c(F)c2)C(=O)O1,1 µg/mL,1 µg/mL,2 µg/mL,1 µg/mL,2 µg/mL,–,–,–,–,–,–,–,–,–,–,–
